{"source": "paper PMC13371181", "about": "“A paracrine-to-autocrine shunt of GREM1 fuels colorectal cancer metastasis via ACVR1C” (Molecular Cancer, 2026)", "key": {"HCT116-luc cells": {"test_system": "HCT116-luc cells", "test": "Cecum-to-liver metastasis model, GREM1-CM-pre-treated HCT116-luc in NOG mice", "type": "in vivo, human cells in NOG mice", "details": "cecum wall, SB505124 10 mg/kg i.p. every other day, IVIS, n = 5 mice per group", "description": "To determine the role of the ACVR1C–SMAD2/3 axis in GREM1-mediated EMT in vivo, we harnessed HCT116 cells carrying a luciferase reporter (HCT116-luc), which stably express either shACVR1C or a scramble shRNA. These cells were pretreated with GREM1-CM prior to their subcutaneous transplantation into nude mice. […] These findings were further corroborated by IF staining of EMT markers, including E-CAD and SNAIL (Figs. 5E–G). As a complementary pharmacological approach, we inhibited ACVR1C-mediated SMAD2/3 activation using SB505124. […] Importantly, to investigate the impact of the ACVR1C–SMAD2/3 axis on metastasis, we injected GREM1-CM-pre-treated HCT116-luc cells, stably expressing either shACVR1C or scramble shRNA, into the tail vein of nude mice. […]\nFigure S8. […] E-G, Representative IF images (E) and quantification (F, G) of E-CAD (green), SNAIL (red), and DAPI (blue) staining in tumors from the indicated groups. […] H, I, Representative IVIS images (H) and quantification (I) of NOG mice that were injected with HCT116-luc cells in the cecum wall and treated with either SB505124 or vehicle via abdominal injection. Liver metastases were imaged and quantified using the IVIS Lumina Imaging System (n = 5 mice per group). […] P values were calculated using one-way ANOVA with Bonferroni multiple-comparison test (B–D, F, and G) or two-tailed Student’s t-test (I)."}, "[1]": {"test_system": "type I TGFβ/Activin receptors", "details": "SB505124; cited from earlier work", "description": "Fig. 3 Secretory GREM1 binding of ACVR1C induces EMT via SMAD2/3 pathway. A, RNA sequencing was performed on HCT116 cells treated with GREM1 conditioned medium (GREM1-CM) or vector control conditioned medium (Vec-CM), followed by GSEA of the C2 gene sets. NES, normalized enrichment score; all P values equal to 0. B, Activation levels of the ACVR1C pathway markers (p-SMAD2/3 and SMAD2/3), as well as expression of the epithelial marker (E-CAD) and the mesenchymal markers (SNAIL, ZEB1, and β-CAT) were compared by immunoblotting analysis in SW480 and HCT116 cells treated with Vec-CM, GREM1-CM, GRE ..."}}, "note": "“Also recorded” adds a separate entry of the source."}
{"smiles": "Cc1cccc(-c2[nH]c(C(C)(C)C)nc2-c2ccc3c(c2)OCO3)n1", "note": "[SB505124]", "values": [{"measurement": "liver metastasis", "setting": "HCT116-luc cells", "result": "significant reduction in liver metastasis; also recorded: markedly attenuated the metastatic phenotype induced by GREM1-CM"}, {"measurement": "selectivity of SMAD2/3 phosphorylation block", "setting": "[1]", "result": "selectively blocks the type I TGFβ/Activin receptors-mediated SMAD2/3 phosphorylation"}]}
